Laboratory results: patent US11292758B2, “Compounds and methods for delivery of prostacyclin analogs” (United Therapeutics Corporation, priority 2003, dated 2022)
Read-outs that look alike come from different tables or passages of the source.

Experiments:
Caco-2 cell monolayers = assay: Permeability across Caco-2 cell monolayers; assay type: in vitro ADME
Excerpt: (§1) There are two major barriers to deliver treprostinil in the circulatory system. One of these barriers is that treprostinil undergoes a large first pass effect. […] The permeability of treprostinil has been measured across Caco-2 cell monolayers. […] It is believed that the p-glycoprotein efflux pump prevents certain pharmaceutical compounds from traversing the mucosal cells of the small intestine and, therefore, from being absorbed into systemic circulation.

[1] = First pass effect on circulating through the liver; assay type: in vivo
Excerpt: as §1

[2] = Skin contact irritation testing
Excerpt: In contrast, some of the compounds disclosed herein, generally as prodrugs of treprostinil, are not irritating to the skin. Accordingly, the present compounds are well suited for topical or transdermal administration.

in vivo = conditions: male, Sprague-Dawley, rat
[3] = Bioavailability and pharmacokinetics of treprostinil in rats after intravenous, intraportal vein, intraduodenal, intracolonic and oral dosing (Example 1); conditions: rats dosed via the portal vein, 1 mg/kg, before the thirty-minute sample
[4] = rat, in vivo
[5] = 1 mg/kg, Average (n = 3) plasma concentrations
[6] = 1 mg/kg, Average plasma concentrations
[7] = iv, 1 mg/kg, Average (n = 3) plasma concentrations
[8] = po, 1 mg/kg, Average (n = 3) plasma concentrations
[9] = male, Sprague-Dawley, iv, 1 mg/kg

Structure (SMILES): CCCCC[C@H](O)CC[C@@H]1[C@H]2Cc3cccc(OCC(=O)O)c3C[C@H]2C[C@H]1O [Treprostinil, treprostinil]
- apical to basal transport rate (Caco-2 cell monolayers): 1.39e-06 cm/s
- basal to apical transport rate (Caco-2 cell monolayers): 1.23e-05 cm/s
- absorbed dose left after first pass [1]: about 40%
- treprostinil plasma levels metabolized upon first circulating through the liver [1]: about 60%
- skin irritation upon skin contact [2]: can be irritating upon skin contact
- concentration at 360 min (in vivo; [5]): 0.89 ng/mL
- concentration at 480 min (in vivo; [5]): 0.9 ng/mL
- concentration at 2 min (in vivo; [6]): 302 ng/mL
- concentration at 5 min (in vivo; [6]): 97.4 ng/mL
- concentration at 15 min (in vivo; [6]): 48 ng/mL
- concentration at 30 min (in vivo; [6]): 21.9 ng/mL
- concentration at 60 min (in vivo; [6]): 11.1 ng/mL
- concentration at 120 min (in vivo; [6]): 3.87 ng/mL
- concentration at 240 min (in vivo; [6]): 2.51 ng/mL
- concentration at 360 min (in vivo; [6]): 4.95 ng/mL
- concentration at 480 min (in vivo; [6]): 5.14 ng/mL
- Tmax (in vivo): ≤ 5 min
- Vd (in vivo; iv, 1 mg/kg): 1.98 L/kg
- clearance (in vivo; iv, 1 mg/kg): 88.5 mL/min/kg
- concentration at 2 min (in vivo; [7]): 1050 ng/mL
- concentration at 5 min (in vivo; [7]): 364 ng/mL
- concentration at 15 min (in vivo; [7]): 131 ng/mL
- concentration at 30 min (in vivo; [7]): 55.6 ng/mL
- concentration at 60 min (in vivo; [7]): 14.4 ng/mL
- concentration at 120 min (in vivo; [7]): 4.45 ng/mL
- concentration at 240 min (in vivo; [7]): 1.09 ng/mL
- concentration at 360 min (in vivo; [7]): 0.5 ng/mL
- concentration at 480 min (in vivo; [7]): 0.3 ng/mL
- AUC(0-t) (in vivo; iv, 1 mg/kg, Average AUC480 min): 188 ng·h/mL
- Cmax (in vivo; iv, 1 mg/kg): 2120 ng/mL
- AUC(0-t) (in vivo; iv, 1 mg/kg, Individual AUC480 min): 172 ng·h/mL
- Tmax (in vivo; iv, 1 mg/kg): 0 min
- half-life (in vivo; iv, 1 mg/kg, T½ (terminal plasma half-life)): 94 min
- half-life (in vivo; iv, 1 mg/kg, half-life of the distribution phase): 10.3 min
- concentration at 5 min (in vivo; [8]): 4.52 ng/mL
- concentration at 15 min (in vivo; [8]): 2.9 ng/mL
- concentration at 30 min (in vivo; [8]): 3.67 ng/mL
- concentration at 60 min (in vivo; [8]): 2.06 ng/mL
- concentration at 120 min (in vivo; [8]): 4.52 ng/mL
- concentration at 240 min (in vivo; [8]): 1.82 ng/mL
- concentration at 360 min (in vivo; [8]): 0.9 ng/mL
- concentration at 480 min (in vivo; [8]): 0.96 ng/mL
- AUC(0-t) (in vivo; po, 1 mg/kg, Average AUC480 min): 17.3 ng·h/mL
- bioavailability (in vivo; po, 1 mg/kg, Average Bioavailability (%) ± SD): 9.2 ± 1.4%
- Cmax (in vivo; po, 1 mg/kg): 5 ng/mL
- AUC(0-t) (in vivo; po, 1 mg/kg, Individual AUC480 min): 16.6 ng·h/mL
- bioavailability (in vivo; po, 1 mg/kg, Individual Bioavailability): 8.9%
- Tmax (in vivo; po, 1 mg/kg): 5 min
- Mortality [3]: One rat (#123) expired
- compound absorbed in the intestine ([4]; male, Sprague-Dawley): approximately 60%
- Tmax ([4]; male, Sprague-Dawley, 1 mg/kg): 2 min
- Average (n = 3) plasma concentrations ([4]; male, Sprague-Dawley, 1 mg/kg, 360 min): 0.06^λ ng/mL
- Average (n = 3) plasma concentrations ([4]; male, Sprague-Dawley, 1 mg/kg, 480 min): 0.20^λ ng/mL
- CLs [4, 9]: 88.54 mL/min/kg
- Volume of Distribution [4, 9]: 1.98 L/kg
- distribution and elimination of the compound that occurs by 60 minutes post-dosing ([4]; male, Sprague-Dawley, iv, 60 min): over 90%
- Clinical observations ([4]; iv, 1 mg/kg): extreme lethargy
